Laboratory results published in publication PMC6372612, “Immunoglobulin G modulation of the melanocortin 4 receptor signaling in obesity and eating disorders” (Translational Psychiatry, 2019).
Entries after “also recorded” stand apart in the source; their conditions may differ.

Tests used:
[1] = molecular target: human melanocortin 4 receptor (human) (UniProt P32245)
[2] = molecular target: human melanocortin 4 receptor (human) (UniProt P32245); assay: SPR; BIAcore 1000; hMC4R-expressing HEK 293 cells coated on the biosensor surface; analyte α-MSH in immune complex with IgG from obese patients; Langmuir 1:1 fit after blank subtraction
[3] = system: male Sprague-Dawley rats; assay: Food intake in rats after intra-PVN injection of α-MSH or α-MSH/IgG IC; assay type: in vivo, rat; details: intra-PVN 2 µL α-MSH 2.5 mg/mL; 12-h fasted rats; vs aCSF
Description: Animal care and experimentation were in accordance with guidelines established by the National Institutes of Health, French and European Community regulations (Official Journal of the European Community L 358, 18/12/1986) and the study was approved by a Regional Ethical Committee (Rouen, France). Sample sizes were selected based on previous experiments. Non-randomized male Sprague-Dawley rats were anesthetized by ketamine (75 mg/kg, Virbac, Carros, France)/xylazine (5 mg/kg, Bayer, Leverkusen, France) solution (3:1 vol., 0.1 mL/100 g, intraperitoneal (IP)) and were stereotaxically implanted with a 9-mm guide cannula (PlasticsOne, Roanoke, VA, USA) into the paraventricular nucleus (PVN). Upon awakening, rats were individually maintained in metabolic cages (Techniplast, Louviers, France) for 5–6 days. […] Food intake was measured 30 min and 2 h after injection.
Animal care and experimentation were in accordance with guidelines established by the National Institutes of Health, French and European Community regulations (Official Journal of the European Community L 358, 18/12/1986). […] Food intake was measured 30 min and 2 h after injection. […]

[4] = system: wild-type C57Bl/6 mice; assay: Food intake in wild-type mice after IP α-MSH; assay type: in vivo, mouse; details: α-MSH 100 µg/kg IP, beginning of dark phase; vs basal food intake; n = 6
Description: Rag^−/− mice (n = 6), bred in a specific-pathogen-free area, were generously provided by Professor Olivier Boyer and a person, Inserm 1234, Rouen. Rag^−/− and C57Bl/6 male mice were individually housed in BioDaq® cages (Research Diets Inc., New Brunswick, NJ, USA) for 7 days, and the basal food intake of each animal was measured during the first 4 h of the dark phase. At day 8, IP injections of α-MSH (100 µg/kg, Bachem) were performed at the beginning of the dark phase. Individual food intake after injection was compared to the basal food intake of the pretreatment period.
Upon arrival into the animal facility, male C57Bl/6 mice (7 weeks – n=6) purchased from Janvier Labs and Rag^-/- mice (generated by the Inserm UMR905 laboratory in a specific-pathogen-free area, n=6) were housed in standard cages (3 mice per cage) in environmental conditions (23 ± 1 °C, 12:12 h light-dark cycle) with standard pellet rodent chow and water available ad libitum. After 7 days of acclimatization, animals were individually housed in BioDaq® cages (Research Diets Inc., New Brunswick, NJ, USA) that provide automatic food intake measurements. During 7 days, the basal food intake of each animal was measured during the first 4 hours of the dark phase. At day 8, intraperitoneal injections of a-MSH (100 µg/kg, Bachem) were performed at the beginning of the dark phase. […]

[5] = system: control HEK 293 cells lacking MC4R; assay: cAMP production by control HEK 293 cells lacking MC4R; details: 15 min at 23 °C
[6] = cited from earlier work
Source text: In fact, the role of both the N- and C-terminals of α-MSH in binding to different MCR subtypes has been shown, with the C-terminal being essential for MC4R recognition. Thus hiding of the C-terminal by IgG in OB patients appears as a negative modulator of α-MSH/IgG IC activation of MC4R. […] 12–13 of the α-MSH C-terminal have also been detected in narcolept ...

[7] = system: human MC4R; assay: cAMP production by MC4R-expressing HEK 293 cells; assay type: cell-based; details: AgRP 100 nM, 45 min preincubation or co-administered; n = 2/group

Chain of human melanocortin 4 receptor (human) (P32245 whole entry): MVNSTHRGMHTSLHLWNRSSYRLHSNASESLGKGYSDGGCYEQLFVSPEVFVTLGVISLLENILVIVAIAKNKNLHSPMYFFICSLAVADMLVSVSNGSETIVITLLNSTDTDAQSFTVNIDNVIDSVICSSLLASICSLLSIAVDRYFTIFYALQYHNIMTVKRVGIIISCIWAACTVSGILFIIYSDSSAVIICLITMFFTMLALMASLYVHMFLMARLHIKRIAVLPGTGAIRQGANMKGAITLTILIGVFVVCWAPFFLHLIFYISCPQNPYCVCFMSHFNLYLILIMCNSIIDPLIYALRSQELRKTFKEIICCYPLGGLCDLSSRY

α-melanocyte-stimulating hormone (peptide)
EC50 of cAMP release by hMC4R-expressing HEK 293 cells, IC formed by α-MSH and IgG from controls and ED patients, against free α-MSH [1]: 50% | fold lower affinity than in IC with IgG from controls [2]: 10 fold

α-melanocyte-stimulating hormone [α-MSH]
anorexigenic effect, cumulative food intake at 30 min [3]: significant anorexigenic effect | anorexigenic effect, cumulative food intake at 120 min [3]: significant anorexigenic effect | 4-h food intake in wild-type mice [4]: significantly reduced food intake | cAMP production by control HEK 293 cells lacking MC4R, in words [5]: no significant α-MSH-induced cAMP production; also recorded: did not observe cAMP production

adrenocorticotropic hormone [ACTH]
functional activity when central part of ACTH is bound by IgG [6]: preserved its functional activity to stimulate cortisol secretion

agouti-related protein (SSRRCVRLHESCLGQQVPCCDPCATCYCRFFNAFCYCRKLGTAMNPCSRT; UniProt O00253 83-132, looked up) [AgRP]
antagonism of α-MSH- and α-MSH/IgG IC-induced cAMP production [7]: antagonized both α-MSH- and α-MSH/IgG IC-induced cAMP production
